Results as given in the RepoRT retention time repository.
Counter-ions that a name gives are not always drawn.

Test: RP, Waters CORTECS UPLC C18, 100 × 2.1 mm, 1.6 µm, 40 °C, 0.4 mL/min, estimated dead time 0.55 min; A: water + 0.1% formic acid, pH 3; B: acetonitrile + 0.1% formic acid, pH 3; gradient (min/%B) 0/5 1.12/5 6.41/99.5 10.01/99.5
Conditions: stereoisomer not certain

SMILES | LC retention time
CCOP(=S)(OCC)ON=C(C#N)c1ccccc1 [Phoxim] | 5.44 min
O=C(Nc1ccc(F)cc1)c1cccc(Oc2cccc(C(F)(F)F)c2)n1 [Picolinafen] | 5.93 min
COC=C(C(=O)OC)c1ccccc1COc1cccc(C(F)(F)F)n1 [Picoxystrobin] | 5.45 min
Cc1nc(N(C)C)nc(OC(=O)N(C)C)c1C [Pirimicarb] | 3.06 min
CCN(CC)c1nc(C)cc(OP(=S)(OC)OC)n1 [Pirimiphos-methyl] | 5.67 min
CCCN(CCOc1c(Cl)cc(Cl)cc1Cl)C(=O)n1ccnc1 [Prochloraz] | 4.73 min
CC12CC1(C)C(=O)N(c1cc(Cl)cc(Cl)c1)C2=O (centres undefined) [Procymidone] | 5.21 min
CCCSP(=O)(OCC)Oc1ccc(Br)cc1Cl (centres undefined) [Profenofos] | 5.85 min
COc1nc(NC(C)C)nc(NC(C)C)n1 [Prometon] | 3.54 min
CCCOC(=O)NCCCN(C)C [Propamocarb] | 1.97 min
CCCC1COC(Cn2cncn2)(c2ccc(Cl)cc2Cl)O1 (centres undefined) [Propioconazole] | 5.3 min
CCC(=O)OC(CC(=O)[O-])C[N+](C)(C)C [Propionyl-L-carnitine] | 0.871 min
C#CC(C)(C)NC(=O)c1cc(Cl)cc(Cl)c1 [Propyzamide] | 5.01 min
CCCN(CCC)C(=O)SCc1ccccc1 [Prosulfocarb] | 5.95 min
CC1=NNC(=O)N(N=Cc2cccnc2)C1 [Pymetrozin] | 1.02 min
CC1=C(C(=O)Nc2ccccc2)CCCO1 [Pyracarbolid] | 4.15 min
COC(=O)N(OC)c1ccccc1COc1ccn(-c2ccc(Cl)cc2)n1 [Pyraclostrobin] | 5.6 min
CC(C)(C)c1ccc(CSc2cnn(C(C)(C)C)c(=O)c2Cl)cc1 [Pyridaben] | 6.5 min
CCCCCCCCSC(=O)Oc1cc(Cl)nnc1-c1ccccc1 [Pyridat] | 6.78 min
Cc1cc(C)nc(Nc2ccccc2)n1 [Pyrimethanil] | 4.13 min
CC(COc1ccc(Oc2ccccc2)cc1)Oc1ccccn1 (centres undefined) [Pyripoxyfen] | 6.07 min
CCOP(=S)(OCC)Oc1cnc2ccccc2n1 [Quinalfos] | 5.44 min
Cc1cnc2c(C(=O)O)c(Cl)ccc2c1 [Quinmerac] | 3.17 min

SMILES | LC retention time
NC1=C(Cl)C(=O)c2ccccc2C1=O [Quinoclamine] | 3.86 min
Cc1cc2nc3c(=O)[nH]c(=O)nc-3n(CC(O)C(O)C(O)CO)c2cc1C (centres undefined) [RIBOFLAVIN] | 2.67 min
OCC1OC(O)C(O)C1O (centres undefined) [RIBOSE] | 0.798 min
CCS(=O)(=O)c1cccnc1S(=O)(=O)NC(=O)Nc1nc(OC)cc(OC)n1 [Rimsulfuron] | 4.11 min
C[S+](CCC(N)C(=O)[O-])CC1OC(n2cnc3c(N)ncnc32)C(O)C1O (centres undefined) [S-ADENOSYLMETHIONINE] | 5.56 min
CCCCCCSCC(NC(=O)CCC(N)C(=O)O)C(=O)NCC(=O)O (centres undefined) [S-HEXYL-GLUTATHIONE] | 3.31 min
NC(=O)c1ccccc1O [SALICYLAMIDE] | 2.88 min
CC1NCCc2cc(O)c(O)cc21 (centres undefined) [SALSOLINOL] | 0.749 min
CC(C)=CCCC(C)=CCCC(C)=CCCC=C(C)CCC=C(C)CCC=C(C)C [SQUALENE] | 6.18 min
CCNc1nc(NC(C)CC)nc(OC)n1 (centres undefined) [Secbumeton] | 3.53 min
C=CCNC(=O)c1c([Si](C)(C)C)sc(C)c1C [Silthiofam] | 5.36 min
CCC1CCCC(OC2CCC(N(C)C)C(C)O2)C(C)C(=O)C2=CC3C(C=CC4CC(OC5OC(C)C(OC)C(OC)C5OC)CC43)C2CC(=O)O1 (centres undefined) [Spinosad A & D] | 4.76 min
Cc1cc(C)c(C2=C(OC(=O)CC(C)(C)C)C3(CCCC3)OC2=O)c(C)c1 [Spiromesifen] | 6.47 min
CCOC(=O)OC1=C(c2cc(C)ccc2C)C(=O)NC12CCC(OC)CC2 (centres undefined) [Spirotetramat] | 4.8 min
CCCN(CC)CC1COC2(CCC(C(C)(C)C)CC2)O1 (centres undefined) [Spiroxamine] | 4.29 min
CCCCCCCCCCCCCCCCCC(=O)OC(CC(=O)[O-])C[N+](C)(C)C [Stearoyl-L-carnitine] | 5.89 min
CCS(=O)(=O)c1nnc(N(C)C(=O)NC)s1 [Sulfadiazole] | 3.13 min
Cc1nn(-c2cc(NS(C)(=O)=O)c(Cl)cc2Cl)c(=O)n1C(F)F [Sulfentrazone] | 4.21 min
Cn1c(=O)c2[nH]cnc2n(C)c1=O [THEOPHYLLINE] | 2.15 min
Cc1cn(C2CC(O)C(CO)O2)c(=O)[nH]c1=O (centres undefined) [THYMIDINE] | 1.1 min
Cc1c[nH]c(=O)[nH]c1=O [THYMINE] | 0.792 min
NC(Cc1cc(I)c(Oc2cc(I)c(O)c(I)c2)c(I)c1)C(=O)O (centres undefined) [THYROXINE] | 3.97 min
O=C/C=C/c1ccccc1 [TRANS-CINNAMALDEHYDE] | 5 min

SMILES | LC retention time
NCCc1c[nH]c2ccccc12 [TRYPTAMINE] | 2.43 min
NCCc1ccc(O)cc1 [TYRAMINE] | 0.755 min
CC(CCC(=O)NCCS(=O)(=O)O)C1CCC2C3C(O)CC4CC(O)CCC4(C)C3CC(O)C12C (centres undefined) [Taurocholic acid sodium salt hydrate] | 3.74 min
CC(CCC(=O)NCCS(=O)(=O)O)C1CCC2C3CCC4CC(O)CCC4(C)C3CC(O)C12C (centres undefined) [Taurodeoxycholic acid] | 4.16 min
CC(CCC(=O)NCCS(=O)(=O)O)C1CCC2C3C(O)CC4CC(O)CCC4(C)C3CCC12C (centres undefined) [Tauroursodeoxycholic acid] | 4.18 min
CC(C)(C)C(O)(CCc1ccc(Cl)cc1)Cn1cncn1 (centres undefined) [Tebuconazole] | 5.06 min
CCc1nn(C)c(C(=O)NCc2ccc(C(C)(C)C)cc2)c1Cl [Tebufanpyrad] | 5.93 min
CCc1ccc(C(=O)NN(C(=O)c2cc(C)cc(C)c2)C(C)(C)C)cc1 [Tebufenozide] | 5.33 min
CNC(=O)N(C)c1nnc(C(C)(C)C)s1 [Tebuthiuron] | 3.68 min
O=C(NC(=O)c1c(F)cccc1F)Nc1cc(Cl)c(F)c(Cl)c1F [Teflubenzuron] | 5.7 min
c1ccc2[nH]c(-c3cscn3)nc2c1 [Thiabendazole] | 2.53 min
N#CN=C1SCCN1Cc1ccc(Cl)nc1 [Thiacloprid] | 3.6 min
CN1COCN(Cc2cnc(Cl)s2)C1=N[N+](=O)[O-] [Thiametoxam] | 2.87 min
O=C(Nc1ccccc1)Nc1cnns1 [Thidiazuron] | 3.74 min
COC(=O)c1sccc1S(=O)(=O)NC(=O)Nc1nc(C)nc(OC)n1 [Thifensulfurson methyl] | 3.9 min
CSC(C)=NOC(=O)N(C)SN(C)C(=O)ON=C(C)SC [Thiodicarb] | 4 min
CNC(=O)ON=C(CSC)C(C)(C)C [Thiofanox] | 4.76 min
CC=C(C)C(=O)OC(CC(=O)[O-])C[N+](C)(C)C [Tigloyl-L-carnitine] | 2.43 min
CC=C(C)C(=O)NCC(=O)O [Tiglyl Glycine] | 2.22 min
COP(=S)(OC)Oc1c(Cl)cc(C)cc1Cl [Tolclosof methyl] | 5.72 min
CCON=C(CC)C1=C(O)CC(c2c(C)cc(C)cc2C)CC1=O (centres undefined) [Tralkoxidym] | 6.22 min
CC(C)(C)C(=O)C(Oc1ccc(Cl)cc1)n1cncn1 (centres undefined) [Triadimefon] | 4.95 min
CC(C)(C)C(O)C(Oc1ccc(Cl)cc1)n1cncn1 (centres undefined) [Triadimenol] | 4.74 min

SMILES | LC retention time
COc1nc(C)nc(NC(=O)NS(=O)(=O)c2ccccc2OCCCl)n1 [Triasulfuron] | 4.09 min
COP(=O)(OC)C(O)C(Cl)(Cl)Cl (centres undefined) [Trichlorfon] | 3 min
Cc1cccc2sc3nncn3c12 [Tricyclazol] | 3.38 min
CCNc1nc(Cl)nc(N(CC)CC)n1 [Trietazin] | 5.23 min
CON=C(C(=O)OC)c1ccccc1CON=C(C)c1cccc(C(F)(F)F)c1 [Trifloxystrobin] | 5.81 min
CCCOCC(=Nc1ccc(Cl)cc1C(F)(F)F)n1ccnc1 [Triflumizol] | 5.16 min
O=C(NC(=O)c1ccccc1Cl)Nc1ccc(OC(F)(F)F)cc1 [Triflumuron] | 5.42 min
CC1(C)CCC(=Cc2ccc(Cl)cc2)C1(O)Cn1cncn1 (centres undefined) [Triticonazole] | 4.76 min
O=c1[nH]c(=O)c2[nH]c(=O)[nH]c2[nH]1 [URATE] | 0.727 min
CC(CCC(=O)O)C1CCC2C3C(O)CC4CC(O)CCC4(C)C3CC(O)C12C (centres undefined) [Ursocholic acid (7-epicholic acid)] | 4.34 min
CCCCC(=O)OC(CC(=O)[O-])C[N+](C)(C)C [Valeryl-L-carnitine] | 2.66 min
CNC(=O)C(C)SCCSP(=O)(OC)OC (centres undefined) [Vamidothion] | 3.02 min
O=c1[nH]c(=O)c2[nH]cnc2[nH]1 [XANTHINE] | 0.727 min
O=c1[nH]c(=O)c2ncn(C3OC(CO)C(O)C3O)c2[nH]1 (centres undefined) [XANTHOSINE] | 0.752 min
O=C(O)c1cc(=O)c2cccc(O)c2[nH]1 [XANTHURENATE] | 2.15 min
CCCCCCC=CC#CCCCCCCCC(=O)O [Ximeninic Acid] | 6.4 min
CCC(C)(NC(=O)c1cc(Cl)c(C)c(Cl)c1)C(=O)CCl (centres undefined) [Zoxamide] | 5.55 min
CCCCCCCCCC(O)CC(=O)OC(CC(=O)[O-])C[N+](C)(C)C [[(3R)-3-Hydroxydodecanoyl]-L-carnitine] | 4.2 min
CCCCCCCCCCCCCC(O)CC(=O)OC(CC(=O)[O-])C[N+](C)(C)C [[(3R)-3-Hydroxyhexadecanoyl]-L-carnitine] | 5.1 min
CCCCCC=CCC=CCCCCCCCC(=O)OC(CC(=O)[O-])C[N+](C)(C)C [cis,cis-9,12-Octadecadienoyl-L-carnitine] | 5.38 min
